According to BindingDB's records for doi:10.1210/edrv-16-4-427 (University of Pennsylvania, 1995):
Peptide text beside a SMILES is read from it.

How the values were obtained:
[1] = biological target: Somatostatin receptor type 3 (Homo sapiens, UniProt P32745)
[2] = biological target: Somatostatin receptor type 2 (Homo sapiens, UniProt P30874)
[3] = biological target: Somatostatin receptor type 4 (Homo sapiens, UniProt P31391)
Chain of Somatostatin receptor type 4 (P31391 whole entry): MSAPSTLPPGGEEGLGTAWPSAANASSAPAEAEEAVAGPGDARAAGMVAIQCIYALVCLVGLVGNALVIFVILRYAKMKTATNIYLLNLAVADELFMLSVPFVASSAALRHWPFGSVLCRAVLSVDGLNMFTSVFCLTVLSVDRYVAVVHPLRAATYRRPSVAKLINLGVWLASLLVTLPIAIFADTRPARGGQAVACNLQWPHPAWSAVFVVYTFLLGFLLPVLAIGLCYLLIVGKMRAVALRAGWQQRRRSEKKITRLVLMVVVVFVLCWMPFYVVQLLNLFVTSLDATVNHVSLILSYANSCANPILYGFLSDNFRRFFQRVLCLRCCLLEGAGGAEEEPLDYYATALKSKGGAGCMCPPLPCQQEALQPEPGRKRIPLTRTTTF

Chain of Somatostatin receptor type 3 (P32745 whole entry): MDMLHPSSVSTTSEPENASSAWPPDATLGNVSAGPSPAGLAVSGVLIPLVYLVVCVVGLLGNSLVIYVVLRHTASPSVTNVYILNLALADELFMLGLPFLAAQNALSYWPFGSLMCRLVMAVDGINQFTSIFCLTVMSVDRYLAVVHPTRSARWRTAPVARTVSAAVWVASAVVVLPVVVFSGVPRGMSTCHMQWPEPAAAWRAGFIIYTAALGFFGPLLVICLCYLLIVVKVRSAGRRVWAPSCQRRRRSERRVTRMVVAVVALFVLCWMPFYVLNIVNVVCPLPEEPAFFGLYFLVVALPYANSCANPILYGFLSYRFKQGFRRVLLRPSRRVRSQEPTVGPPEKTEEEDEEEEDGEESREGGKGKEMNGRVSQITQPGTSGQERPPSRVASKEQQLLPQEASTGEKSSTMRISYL
Chain of Somatostatin receptor type 2 (P30874 whole entry): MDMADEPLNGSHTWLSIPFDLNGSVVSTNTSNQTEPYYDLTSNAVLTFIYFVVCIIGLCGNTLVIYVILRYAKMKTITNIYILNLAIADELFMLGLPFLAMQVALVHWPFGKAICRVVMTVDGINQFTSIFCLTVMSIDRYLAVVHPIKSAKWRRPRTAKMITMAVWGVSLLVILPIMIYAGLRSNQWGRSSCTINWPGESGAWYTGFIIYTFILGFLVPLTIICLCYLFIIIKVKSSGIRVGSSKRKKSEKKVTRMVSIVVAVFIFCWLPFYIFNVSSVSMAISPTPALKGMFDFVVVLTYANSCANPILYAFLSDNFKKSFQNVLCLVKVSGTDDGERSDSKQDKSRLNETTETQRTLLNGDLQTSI

| Compound | Ki [1] [nM] | Ki [2] [nM] | Ki [3] [nM] |
| --- | --- | --- | --- |
| CC(C)[C@@H]1NC(=O)[C@H](CCCCN)NC(=O)[C@@H](Cc2c[nH]c3ccccc23)NC(=O)[C@H](Cc2ccc(O)cc2)NC(=O)[C@H](C)N(C)C(=O)[C@H](Cc2ccccc2)NC1=O [CAS_3086456] | 268 | – | – |
| C[C@@H](O)[C@@H]1NC(=O)[C@H](Cc2ccc(O)cc2)NC(=O)[C@H]([C@@H](C)O)NC(=O)[C@H](CCCCN)NC(=O)[C@H](Cc2c[nH]c3ccccc23)NC(=O)[C@H](Cc2ccccc2)NC(=O)[C@H](Cc2ccccc2)NC(=O)[C@H](CC(N)=O)NC(=O)[C@H](CCCCN)NC(=O)CCCCC[C@@H](C(=O)O)NC(=O)[C@H](CO)NC1=O [CGP-23996] (HELM PEPTIDE1{K.N.F.F.W.K.T.Y.T.S.[O=C(O)[C@H](CCCCCC(=O)[*:3])N[*:1]]}$PEPTIDE1,PEPTIDE1,1:R1-11:R3$$$V2.0) | 0.6 | 1 | 4.7 |
